Measured values as given in the NIST ThermoML archive (doi:10.1016/j.jct.2010.08.019).

Assay: xn = mol fraction of the nth substance listed
Settings: for surface tension liquid-gas: Wilhelmy-plate method; for viscosity / mass density: 101 kPa, Liquid; for viscosity: Falling or rolling sphere viscometry; for mass density: Vibrating tube method

C1CCOCC1 [tetrahydropyran] + CC(C)CC(C)(C)C
Settings | mass density [kg/m3] | surface tension liquid-gas [mN/m] | viscosity [mPa·s]
293.15 K, x1 = 0.0502 | 697.82 | 18.9 | 0.506
293.15 K, x1 = 0.1 | 703.85 | 19 | 0.514
293.15 K, x1 = 0.1499 | 710.17 | 19.2 | 0.524
293.15 K, x1 = 0.2 | 716.8 | 19.4 | 0.533
293.15 K, x1 = 0.25 | 723.72 | 19.6 | 0.544
293.15 K, x1 = 0.3 | 730.98 | 19.8 | 0.553
293.15 K, x1 = 0.35 | 738.59 | 20.1 | 0.564
293.15 K, x1 = 0.4 | 746.55 | 20.3 | 0.577
293.15 K, x1 = 0.4498 | 754.88 | 20.6 | 0.592
293.15 K, x1 = 0.5001 | 763.72 | 20.9 | 0.606
293.15 K, x1 = 0.5501 | 772.97 | 21.2 | 0.623
293.15 K, x1 = 0.5999 | 782.67 | 21.6 | 0.638
293.15 K, x1 = 0.6501 | 793 | 22 | 0.655
293.15 K, x1 = 0.6999 | 803.82 | 22.5 | 0.675
293.15 K, x1 = 0.75 | 815.32 | 23.1 | 0.696
293.15 K, x1 = 0.8 | 827.51 | 23.6 | 0.718
293.15 K, x1 = 0.8501 | 840.43 | 24.3 | 0.743
293.15 K, x1 = 0.9 | 854.12 | 25.2 | 0.771
293.15 K, x1 = 0.95 | 868.68 | 26.3 | 0.803
293.15 K, x1 = 1 | 884.27 | 27.5 | 0.86
303.15 K, x1 = 0.0502 | 689.38 | 18 | 0.452
303.15 K, x1 = 0.1 | 695.35 | 18.2 | 0.455
303.15 K, x1 = 0.1499 | 701.6 | 18.3 | 0.463
303.15 K, x1 = 0.2 | 708.16 | 18.6 | 0.47
303.15 K, x1 = 0.25 | 715.01 | 18.8 | 0.478
303.15 K, x1 = 0.2999 | 722.17 | 19 | 0.488
303.15 K, x1 = 0.3498 | 729.67 | 19.2 | 0.497
303.15 K, x1 = 0.3998 | 737.56 | 19.5 | 0.509
303.15 K, x1 = 0.4498 | 745.84 | 19.7 | 0.52
303.15 K, x1 = 0.5001 | 754.6 | 20 | 0.533
303.15 K, x1 = 0.5501 | 763.76 | 20.3 | 0.546
303.15 K, x1 = 0.5999 | 773.38 | 20.6 | 0.56
303.15 K, x1 = 0.6501 | 783.61 | 21 | 0.574
303.15 K, x1 = 0.6999 | 794.32 | 21.5 | 0.59
303.15 K, x1 = 0.75 | 805.72 | 22.1 | 0.607
303.15 K, x1 = 0.8 | 817.78 | 22.6 | 0.625
303.15 K, x1 = 0.8501 | 830.59 | 23.3 | 0.646
303.15 K, x1 = 0.9 | 844.14 | 24.2 | 0.67
303.15 K, x1 = 0.95 | 858.58 | 25.2 | 0.699
303.15 K, x1 = 1 | 874.07 | 26.2 | 0.749
313.15 K, x1 = 0.0501 | 680.92 | 17.1 | 0.407
313.15 K, x1 = 0.1002 | 686.85 | 17.3 | 0.411
313.15 K, x1 = 0.1501 | 693.02 | 17.5 | 0.416
313.15 K, x1 = 0.1999 | 699.48 | 17.7 | 0.422
313.15 K, x1 = 0.2501 | 706.27 | 17.9 | 0.429
313.15 K, x1 = 0.3 | 713.35 | 18.1 | 0.437
313.15 K, x1 = 0.3499 | 720.78 | 18.4 | 0.444
313.15 K, x1 = 0.4002 | 728.64 | 18.6 | 0.453
313.15 K, x1 = 0.4502 | 736.83 | 18.9 | 0.463
313.15 K, x1 = 0.4999 | 745.4 | 19.1 | 0.473
313.15 K, x1 = 0.5499 | 754.47 | 19.4 | 0.484
313.15 K, x1 = 0.6 | 764.05 | 19.7 | 0.496
313.15 K, x1 = 0.65 | 774.13 | 20.1 | 0.509
313.15 K, x1 = 0.6998 | 784.75 | 20.6 | 0.523
313.15 K, x1 = 0.75 | 796.05 | 21.2 | 0.538
313.15 K, x1 = 0.8001 | 808 | 21.7 | 0.554
313.15 K, x1 = 0.8501 | 820.66 | 22.4 | 0.573
313.15 K, x1 = 0.9001 | 834.12 | 23.2 | 0.596
313.15 K, x1 = 0.9498 | 848.37 | 24.1 | 0.624
313.15 K, x1 = 1 | 863.76 | 25.1 | 0.658
323.15 K, x1 = 0.0501 | 672.44 | 16.4 | 0.366
323.15 K, x1 = 0.1002 | 678.3 | 16.6 | 0.369
323.15 K, x1 = 0.1501 | 684.41 | 16.7 | 0.372
323.15 K, x1 = 0.1999 | 690.79 | 17 | 0.377
323.15 K, x1 = 0.2501 | 697.5 | 17.2 | 0.383
323.15 K, x1 = 0.3 | 704.51 | 17.3 | 0.39
323.15 K, x1 = 0.3499 | 711.86 | 17.5 | 0.398
323.15 K, x1 = 0.4002 | 719.63 | 17.8 | 0.406
323.15 K, x1 = 0.45 | 727.72 | 18 | 0.415
323.15 K, x1 = 0.5002 | 736.27 | 18.3 | 0.424
323.15 K, x1 = 0.55 | 745.22 | 18.5 | 0.433
323.15 K, x1 = 0.5997 | 754.63 | 18.8 | 0.443
323.15 K, x1 = 0.65 | 764.68 | 19.2 | 0.454
323.15 K, x1 = 0.6998 | 775.17 | 19.6 | 0.466
323.15 K, x1 = 0.75 | 786.37 | 20.1 | 0.479
323.15 K, x1 = 0.8001 | 798.2 | 20.7 | 0.493
323.15 K, x1 = 0.8501 | 810.77 | 21.3 | 0.508
323.15 K, x1 = 0.9002 | 824.1 | 22.1 | 0.523
323.15 K, x1 = 0.95 | 838.27 | 22.9 | 0.541
323.15 K, x1 = 1 | 853.46 | 23.8 | 0.565
